Experimental data as given in US20140314686A1, “POLYPHENOL/FLAVONOID COMPOSITIONS AND METHODS OF FORMULATING ORAL HYGIENIC PRODUCTS” (API Genesis, LLC, priority 2013, published 2014).
In brackets after ≈: the same amount, converted by molar mass.

How the values were obtained:
[1] = Solubility in PS80 via the thermal processing method (polyphenol/surfactant concentrate); conditions: for PS80 Solution Temp.: temperature of complete solubilization in PS80; for solubility: 20 °C, organic solvent or mixture
Procedure: The molar ratio of active agent (polyphenol) to solubilizing agent (surfactant) is typically 1:2 to 1:5, and at times much greater, e.g. 1:2 to 1:20 depending on the active agent/surfactant combination.
Apigenin/Polysorbate 80 (PS80) formulations can be made as follows: • Apigenin powder and PS80 are mixed in the ratio from about 5 to 10 wt. % of apigenin to 95 to 90 wt. % PS80.
All solubility tests were conducted with 20 ml of PS80 contained within 80 ml Pyrex glass beakers.

[2] = Stability of soluble flavone sodium salts in bicarbonate/peroxide dentifrice; type: physicochemical; conditions: dentifrice with sodium bicarbonate, peroxide and peroxide stabilizer, pH ~10-10.5
Procedure: It was experimentally determined that the toothpaste formulations containing both sodium bicarbonate and sodium carbonate peroxide together with stabilizing polymer formulations had pHs of ˜10-10.5. When aglycone flavone (i.e., apigenin and luteolin) powders were added to dentifrices including sodium bicarbonate, sodium bicarbonate peroxide and a peroxide stabilizer, it was also determined that soluble flavone sodium salts were formed that were stable in these highly oxidative peroxide compositions. The presence of stable soluble alkali metal flavone salts with highly anti-oxidant and anti-inflammatory properties in an emulsion formulation was totally unanticipated since aglycone flavones are prone to oxidative decomposition.

[3] = EGCG retention in saliva after brushing with alkaline EGCG toothpaste (colour on alkalizing); type: in vivo, human; conditions: PeroxiCare toothpaste with 0.1 wt. % EGCG and 0.1 wt. % ascorbic acid, saliva after brushing and rinsing
[4] = pH required for a stable aqueous microemulsion with nonionic surfactants; type: physicochemical; conditions: nonionic surfactants Polysorbate 80 and Cremophor RH40
Excerpt: In one embodiment, a flavonoid/polyphenol microemulsion can be made as follows: • The mixing of a flavonoid/polyphenol with an alkali metal component (e.g., alkali metal hydroxide(s) and/or alkaline metal salt(s)) to form an alkali metal flavonoid/polyphenol salt within an aqueous solution. • Adding a surfactant in the ratio from about 5 to 20 wt. % of the flavonoid/polyphenol to 95 to 80 wt. % of a surfactant; preferable a nonionic surfactant. • This mixture is thoroughly stirred to form a uniform clear solution. • Adjusting (e.g., acidifying) the alkali metal flavonoid/polyphenol salt with an agent (e.g., an acidic agent such as acetic acid and/or hydrochloric acid) to a pH level required to form a clear and stable microemulsion.
Stable microemulsions with apigenin and the nonionic surfactants, Polysorbate 80 and Cremophor RH40, were achieved provided a pH level of 8.0 to 8.5 was maintained. For luteolin, it as determined that a pH of 7 was required to maintain a stable aqueous microemulsion; and for resveratrol, a pH of >4.5 to 7.5.

[5] = Solubilization in Listerine mouth rinse via sodium salt and pH adjustment; type: physicochemical
Procedure: 100 grams of the Listerine® Resveratrol Containing Mouth Rinse formulation was prepared as follows: • 1. 98.4 grams of the Listerine® caramel colored mouth rinse was added to a 300 ml Pyrex glass beaker. […] About 0.2 grams of fine NaOH crystals were added to the mixture from Step 2 and thoroughly mixed. A uniformly caramel colored blend resulted with a measured pH of ˜10. […] The pH the mixture from Step 3 was adjusted to a pH 6.5 by the addition of about 0.2 grams of citric acid crystals. […] • 1. 98.6 grams of the Listerine® caramel colored mouthrinse was added to a 300 ml Pyrex glass beaker. […] About 0.2 grams of fine NaOH crystals were added to the mixture from Step 2 and thoroughly mixed. A uniformly caramel colored blend resulted with a measured pH of ˜10. […] The pH the mixture from Step 2 was adjusted to a pH 8 by the addition of about 0.2 grams of citric acid crystals.

Row | Structure (SMILES) | PS80 Solution Temp. [1] | solubility ([1]; Polysorbate 80 (PS80)) | solubility (Solubility in water; water, 20 °C) | other results
1 | O=c1cc(-c2ccc(O)cc2)oc2cc(O)cc(O)c12 [Apigenin, 4′,5,7,-trihydroxyflavone] | – | – | – | concentration of stable concentrate in PS80 ([1]; 5.0 wt. % in PS80, heated approaching 300 degree C, cooled to ambient): 50000 µg/mL; stability of soluble flavone sodium salt in oxidative peroxide composition [2]: stable
2 | O=c1c(-c2ccc(O)cc2)coc2cc(O)cc(O)c12 [Genistein] | ~220 °C | – | – | solubility [1]: 50 mg/mL; solubility (Solubility in water; 20 °C, water): 0.12 mg/mL (≈ 444 µM)
3 | O=c1cc(-c2ccc(O)c(O)c2)oc2cc(O)cc(O)c12 [Luteolin, 3′,4′,5,7-tetrahydroxyflavone] | – | – | – | pH level for a stable aqueous microemulsion [4]: 7; concentration in transparent solution ([5]; NaOH to pH ~10, citric acid to pH 8): 1500 µg/mL; stability of soluble flavone sodium salt in oxidative peroxide composition [2]: stable
4 | Oc1ccc(C=Cc2cc(O)cc(O)c2)cc1 [Resveratrol, resveratrol] | – | – | – | concentration in transparent solution ([5]; NaOH to pH ~10, citric acid to pH 6.5): 1200 µg/mL

More lines, main results first:

Row | PS80 Solution Temp. [1] | solubility ([1]; Polysorbate 80 (PS80)) | solubility (Solubility in water; water, 20 °C) | Structure (SMILES) | other results
5 | ~210 °C | – | – | O.Oc1cc(O)c2c(c1)O[C@H](c1ccc(O)c(O)c1)[C@@H](O)C2 [Catechin] | PS80 Solubility ([1]; at 20° C., 20 ml PS80, not the maximum solubility levels in PS80): 50 mg/mL; Water Solubility (Solubility in water; at 20° C.): ~5 mg/mL
6 | ~140 °C | 50 mg/mL | 0.08 mg/mL (≈ 315 µM) | O=c1cc(-c2ccccc2)oc2cc(O)cc(O)c12 [Chrysin] | –
7 | ~150 °C | 50 mg/mL | ~25 mg/mL (≈ 54500 µM) | O=C(O[C@@H]1Cc2c(O)cc(O)cc2O[C@@H]1c1cc(O)c(O)c(O)c1)c1cc(O)c(O)c(O)c1 [Epigallocatechin Gallate (EGCG), Epigallocatechin gallate] | retention in saliva (red/brown color on alkalizing saliva to pH ~10.5) [3]: retained
8 | ~280 °C | 50 mg/mL | 0.04 mg/mL (≈ 147 µM) | O=C1C[C@@H](c2ccc(O)cc2)Oc2cc(O)cc(O)c21 [Naringenin] | –
